Test results published in patent publication EP4763837A1, “PHOTOCHROMIC COMPOUND, CURABLE COMPOSITION, OPTICAL ARTICLE, LENS, AND EYEGLASSES” (TOKUYAMA CORPORATION, priority 2023, dated 2025).
Values joined by “and” are separate entries in the source; they are usually repeats but may differ in a detail not shown here. Equal values may be shown once.

What was measured:
Type in all cases: physicochemical
[1] = Photochromic property of photochromic cured product made by kneading method; conditions: for Residual ratio: A96/A0 x 100 after 96 hours accelerated degradation, xenon weather meter X25; for Color developing density at 23°C: absorbance difference after 240 seconds irradiation at the maximum absorption wavelength of the same line
Procedure: (§1) The resulting photochromic laminates were evaluated by the below-mentioned methods. • (1) Photochromic property • [1] Maximum absorption wavelength (λmax): This is the maximum absorption wavelength after color development determined by a spectrophotometer manufactured by Otsuka Electronics Co., Ltd. (instantaneous multichannel photo detector MCPD3000) and was used as an index of a color tone upon color development. • [2] Color developing density at 23°C (A23): This is a difference between an absorbance {ε(240)} after irradiation with light at 23°C for 240 seconds and an absorbance ε(0) when not irradiated with light at the maximum absorption wavelength and was used as an index of a color developing density. The higher this value is, the better a photochromic property is. • [3] Color fading half-life at 23°C [τ1/2 (sec).)]: This is a period of time taken by an absorbance at the maximum absorption wavelength of a sample to decrease to 1/2 of {ε(240)-ε(0)} when irradiation is stopped after irradiation with light at 23°C for 240 seconds, and was used as an index of a color fading rate. The shorter this period of time is, the faster the color fading rate is. • [4] Residual ratio (A96/A0 x 100): The resulting photochromic plastic lens was subjected to accelerated degradation for 96 hours using a xenon weather meter X25 manufactured by Suga Test Instruments Co., Ltd. Color developing densities were then evaluated before and after a test, and a color developing density before the test (A0) and a color developing density after the test (A96) were measured. A ratio (A96/A0) was determined as a residual ratio and was used as an index of color development durability. The higher the residual ratio is, the more durable the color development is.
First, the photochromic compound obtained in Example 1, an additive, and a polymerizable compound were mixed to obtain a curable composition. The polymerizable compound was a combination of the following polymerizable monomers: • · 1,3-Bis(isocyanatomethyl)cyclohexane: 36.7 parts by mass • · Pentaerythritol tetrakis(3-mercaptopropionate): 39.4 parts by mass • · Polyoxyethylene polyoxypropylene lauryl ether (WONDERSURF 140 manufactured by AOKI OIL INDUSTRIAL Co., Ltd.): 17.4 parts by mass • · 1-Decanethiol: 2.8 parts by mass • · RX-1 prepared by the method described in Patent Document 14: 3.8 parts by mass
Note that, in the curable composition, the photochromic compound was added in an amount of 0.106 mmol taking a total amount of the polymerizable monomers as 100 g.
The following additives were used: • · Dimethyltin dichloride: 0.05 parts by mass • · Irganox 245: 0.1 parts by mass • · 2-Ethylhexyl […]: 0.6 parts by mass
After the thus-prepared curable composition was thoroughly defoamed, it was poured into a glass mold with a gap of 1 mm and polymerized by casting polymerization. […] After the polymerization, the resulting cured product was removed from the glass mold to obtain a photochromic cured product with a thickness of 1 mm. The resulting photochromic cured product was evaluated in the same manner as for Example 23.
Photochromic cured products were produced using the photochromic compounds shown in Table 4 in the same manner as in Example 50.

[2] = Photochromic property of photochromic laminate made by coating method; conditions: for Residual ratio: laminate by coating method, A96/A0 x 100 after 96 hours accelerated degradation, xenon weather meter X25
In short: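 Compound at 0.25 mmol per 100 g methacrylate monomer mix, spin-coated 40 µm on a primed thiourethane lens, photocured 90 s under N2, then 110°C for 1 h. λmax and A23 measured after 240 s irradiation at 23°C; τ1/2 is time to half-fade after irradiation stops. Residual ratio A96/A0 after 96 h xenon weathering.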

[3] = Photochromic property of binder sheet (photochromic layer made by binder method); conditions: for Color developing density at 23°C: absorbance difference after 240 seconds irradiation at the maximum absorption wavelength of the same line; for Residual ratio: A96/A0 x 100 after 96 hours accelerated degradation, xenon weather meter X25
Procedure: as §1
A binder sheet was produced as follows. The binder sheet was made by laminating a first optical sheet, a first adhesive layer, a photochromic layer, a second adhesive layer, and a second optical sheet in this order. A polycarbonate sheet with a thickness of 400 µm was used as the first optical sheet and the second optical sheet.
A 2 L four-necked flask equipped with a stirring blade, a condense tube, a thermometer, and a nitrogen gas inlet tube was charged with 315 parts by mass of polycarbonate diol with a number average molecular weight of 1000, 100 parts by mass of isophorone diisocyanate, and 72 parts by mass of toluene and reacted under a nitrogen atmosphere at 100°C for 7 hours. Thus, a urethane prepolymer with a terminal isocyanate group was synthesized. After the reaction of the above-mentioned urethane prepolymer was completed, the resulting reaction liquid was cooled to about 0°C and dissolved in 205 parts by mass of tertiary-butyl alcohol and 382 parts by mass of diethyl ketone, and then a temperature of the resulting liquid was kept at 0°C. Next, a mixed solution of 21.3 parts by mass of bis-(4-aminocyclohexyl)methane serving as a chain extender and 20 parts by mass of diethyl ketone was added dropwise thereto within 30 minutes and reacted at 0°C for 1 hour. Then, 8.1 parts by mass of 1,2,2,6,6-pentamethyl-4-aminopiperidine was added dropwise thereto and reacted at 0°C for 1 hour to obtain a solution of a terminal non-reactive urethane urea resin in diethylketone.
One hundred parts by mass of the resulting solution of a terminal non-reactive urethane urea resin, 6.3 parts by mass of Example 1 (a photochromic compound represented by Formula (1-7), an isomer mixture of 4,4'-methylenebis(cyclohexylisocyanate) (polyisocyanate compound)), 0.4 parts by mass of ethylenebis(oxyethylene) bis[3-(5-tert-butyl-4-hydroxy-m-tolyl) propionate] serving as an antioxidant, and 0.06 parts by mass of L-7001 manufactured by DuPont Toray Specialty Materials K.K. serving as a surfactant were added and stirred and mixed at room temperature to obtain a composition for forming a photochromic layer. […]

Residual ratio [1] | Color developing density at 23°C [1] | Color fading half-life at 23°C [2] [min] | Residual ratio [2] [%] | Color developing density at 23°C [3] | Residual ratio [3] | Compound
78% | 0.90 - and 0.89 - | 1.65 | 68 | 0.89 - and 0.83 - | – | CCCCC1(CC)c2ccccc2-c2c1c1c(c3cc(OC)c(C)cc23)OC(c2ccc(OC)cc2)(c2ccc(OCCC)cc2)C=C1 (stereo not drawn) [Formula (2-2)]
79% and 77% | 0.77 - and 0.74 - | 0.717 | – | 0.76 - and 0.75 - | 90% | CCCC1(CC)c2ccccc2-c2c1c1c(c3cc(OC)c(Sc4c(C)cccc4C)cc23)OC(c2ccc(OC)cc2)(c2ccc(N3CCOCC3)cc2)C=C1 (stereo not drawn) [Formula (4-5)]
72% and 71% | 0.75 - and 1.05 - | – | 63 | 0.74 - and 1.05 - | 82% and 83% | CCC1(C)c2ccccc2-c2c1c1c(c3cc(OC)c(-c4ccc(OC)cc4OC)cc23)OC(c2ccc(OC)cc2)(c2ccc(N(C)c3ccccc3)cc2)C=C1 (stereo not drawn) [Formula (13-2)]
